Read-outs that look alike come from different tables or passages of the source.
How the values were obtained:
KV10.1 = biological target: T1, KV10.1 (Homo sapiens, UniProt O95259); assay: Whole-cell patch clamp on HEK-293 cells stably expressing KV10.1; type: cell-based
T1 construct: expressed in transfected cells
T1 sequence (O95259 1-962 isoform O95259-2): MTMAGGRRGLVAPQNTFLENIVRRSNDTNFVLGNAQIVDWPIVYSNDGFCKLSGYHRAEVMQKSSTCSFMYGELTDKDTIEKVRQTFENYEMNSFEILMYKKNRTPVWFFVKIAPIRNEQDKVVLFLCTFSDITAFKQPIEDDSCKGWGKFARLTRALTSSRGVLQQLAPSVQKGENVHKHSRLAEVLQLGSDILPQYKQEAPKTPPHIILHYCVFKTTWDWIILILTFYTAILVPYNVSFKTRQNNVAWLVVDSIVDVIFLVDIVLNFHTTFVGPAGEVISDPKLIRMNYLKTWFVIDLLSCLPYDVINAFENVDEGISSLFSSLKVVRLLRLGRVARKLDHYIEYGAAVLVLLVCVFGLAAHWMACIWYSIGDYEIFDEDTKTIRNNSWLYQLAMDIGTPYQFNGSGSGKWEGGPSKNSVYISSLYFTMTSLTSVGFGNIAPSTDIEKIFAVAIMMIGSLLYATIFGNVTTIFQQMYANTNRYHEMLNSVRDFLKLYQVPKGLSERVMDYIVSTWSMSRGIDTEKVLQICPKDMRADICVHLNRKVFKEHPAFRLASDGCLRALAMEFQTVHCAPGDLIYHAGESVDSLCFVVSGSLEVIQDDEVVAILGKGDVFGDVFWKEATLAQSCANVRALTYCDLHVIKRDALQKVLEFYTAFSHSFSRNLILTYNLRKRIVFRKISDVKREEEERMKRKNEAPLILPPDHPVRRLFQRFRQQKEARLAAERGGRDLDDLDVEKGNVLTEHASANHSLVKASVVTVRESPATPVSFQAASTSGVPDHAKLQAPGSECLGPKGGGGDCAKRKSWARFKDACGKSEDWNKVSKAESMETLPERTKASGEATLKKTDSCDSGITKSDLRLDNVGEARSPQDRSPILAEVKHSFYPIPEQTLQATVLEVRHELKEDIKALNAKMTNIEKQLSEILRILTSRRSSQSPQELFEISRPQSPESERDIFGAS
Description: Whole-cell patch clamp experiments were performed on stably transfected HEK-293 cells. The cells were grown on fibronectin-coated glass coverslips in DMEM supplemented with 10% FCS and 300 µg/mL Zeocin. Experiments were performed at room temperature under continuous perfusion. The extracellular solution contained (mM) 160 NaCl, 2.5 KCl, 2 CaCl2, 1 MgCl2, 10 Hepes/NaOH, pH 7.4, 8 glucose. For the experiments determining conductance–voltage relationships, tail currents were made visible by substituting 60 mM NaCl by KCl ([…], 100 NaCl). Pipettes were pulled from #1 glass capillaries (WPI) to resistances of 1–3 MΩ when loaded with the intracellular solution (100 KCl, 45 N-methyl-D-glucamine, 10 1,2-bis(o-aminophenoxy)ethane-N,N,N′,N′-tetraacetic acid (BAPTA), 10 Hepes pH 7.35). Data acquisition was performed using a EPC10 Plus amplifier (HEKA Elektronik) and Patch Master software. Drug application was performed using an 8-channel fast solution exchanger (ALA). All compounds were dissolved in DMSO to a final concentration of 10 mM. 0.5% DMSO in extracellular solution served as control. KV10.1 currents were elicited by 500 ms depolarisations to +40 mV under continuous perfusion with the compound-containing or control solution. hERG current amplitudes were measured as the peak tail current during a 4 s repolarization to −40 mV after a depolarising pulse to +20 mV lasting for 2 s.
The nine selected in silico hits were tested by manual patch-clamp on a HEK293 cell line stably expressing KV10.1 [33] at a compound concentration of 50 μM (Table 1). Compound activity was tested by determining the current amplitude elicited by repetitive stimuli to +40 mV from a holding potential of −80 mV. […] The hit compound ZVS-08 represents a new structural class of KV10.1 inhibitors with diarylamine structure and has a unique structure among the acquired virtual screening hits. […] The most notable change from the purpurealidin analogues is the replacement of the hydrogen bond acceptor group of the amide bond with the oxygen atom of the nitro group of ZVS-08.

[1] = test system: Salmonella typhimurium strain TA98; assay: Salmonella/microsomal reverse mutation (Ames) assay, TA98; design: key to bacterial background lawn: slightly reduced bacterial background; moderately reduced bacterial background; extremely reduced bacterial background; bacterial background is absent; settings: for mutagenic response: TA98, 0.0158–0.158 mg/plate, −S9 and +S9; for cytotoxic concentration to bacterial strain: TA98, −/+ S9 metabolic activation; for induction factor (IF): IF ≥ 2 positive
Description: Mutagenicity of compounds ZVS-08 and 8 was tested with the Salmonella/microsomal reverse mutation (Ames) assay on Salmonella typhimurium strains TA98 and TA100 without and with external metabolic activation according to the OECD guidelines (OECD TG 471) with minor modifications. Briefly, 100 µL of ZVS-08 and 8 (0.158, 0.5, 1.58, 5, 15.8, and 50 mg/mL corresponding to the final concentration of 0.0158, 0.05, 0.158, 0.5, 1.58, and 5 mg/plate, respectively), […] bacterial culture of S. typhimurium (overnight culture at 37 °C), and […] of phosphate buffer (for assays without metabolic activation) or 10% S9 mix (for assays with metabolic activation) were added to 2 mL of molten top agar (supplemented with histidine/biotin, final concentration 0.05 mM), gently mixed and poured onto minimal agar plates. The number of His+ revertants was counted after 48 h (TA100) and 72 h (TA98) of incubation at 37 °C. Three plates were used per treatment point. The mutagenic potential of the compounds was expressed as an induction factor (IF), where IF = (number of revertants in the presence of the compound)/(number of revertants in solvent control). Additionally, each plate was checked for possible toxic effects of tested compounds. […] 4-nitroquinoline- N-oxide (4-NQNO; 0.25 μg/plate) for TA98 and sodium azide (NaN3; 0.25 μg/plate) for TA100 were used as positive controls without S9 metabolic activation, while benzo[a]pyrene (B[a]P; 2.5 μg/plate) was used as positive controls for both bacterial strains with S9 metabolic activation.

[2] = HEK-293, 500 ms depolarisation to +40 mV, read-out: IC50 Kv10.1

## O=[N+]([O-])c1cc(C(F)(F)F)ccc1Nc1ccc(OCC(O)CN2CCOCC2)cc1 (stereo not drawn) [Compound 8]
KV10.1; [2]
  IC50: 1010 nM
[1]
  mutagenic response: no mutagenic response
  cytotoxic concentration to bacterial strain: ≥ 0.5 mg/plate

## CN(C)CC(O)COc1ccc(Nc2ccc(C(F)(F)F)cc2[N+](=O)[O-])cc1 (stereo not drawn) [ZVS-08]
KV10.1; HEK293, compound concentration 50 μM, stimuli to +40 mV, mean ± standard error, read-out: Effect on Kv10.1 (% Inhibition)
  inhibition at 50 µM: 80.27 ± 0.63%
KV10.1; [2]
  IC50: 3700 nM
KV10.1; in the presence of 5 µM ZVS-08, 4.39 ± 1.9 mV in the absence
  semi-maximal activation (conductance–voltage relationship): −29.88 ± 1.8 mV
KV10.1; same IC50 in presence and absence of 500 nM astemizole, end of 500 ms pulse to +40 mV, read-out: IC50 Kv10.1, competition with astemizole
  IC50: 1690 nM
KV10.1; same IC50 in presence and absence of 1 µM mibefradil, end of 500 ms pulse to +40 mV, read-out: IC50 Kv10.1, competition with mibefradil
  IC50: 1470 nM
[1]
  mutagenic response: no mutagenic response
  cytotoxic concentration to bacterial strain: ≥ 0.5 mg/plate
[1]; TA98, +S9, 0.0158 mg/plate
  Average number of revertant colonies (mean ± SD): 31.00 ± 3.61
  induction factor (IF): 0.85
[1]; TA98, +S9, 0.05 mg/plate
  Average number of revertant colonies (mean ± SD): 45.33 ± 8.62
  induction factor (IF): 1.25
[1]; TA98, +S9, 0.158 mg/plate
  Average number of revertant colonies (mean ± SD): 34.67 ± 14.05
  bacterial background lawn: a
  induction factor (IF): 0.95
[1]; TA98, +S9, 0.5 mg/plate
  Average number of revertant colonies (mean ± SD): 0
  bacterial background lawn: b
[1]; TA98, +S9, 1.58 mg/plate
  Average number of revertant colonies (mean ± SD): 0
  bacterial background lawn: d
[1]; TA98, +S9, 5 mg/plate
  Average number of revertant colonies (mean ± SD): 0
  bacterial background lawn: d
[1]; TA98, -S9, 0.0158 mg/plate
  Average number of revertant colonies (mean ± SD): 21.67 ± 4.51
  induction factor (IF): 0.86
[1]; TA98, -S9, 0.05 mg/plate
  Average number of revertant colonies (mean ± SD): 22.67 ± 8.08
  induction factor (IF): 0.89
[1]; TA98, -S9, 0.158 mg/plate
  Average number of revertant colonies (mean ± SD): 17.67 ± 3.79
  bacterial background lawn: a
  induction factor (IF): 0.70
[1]; TA98, -S9, 0.5 mg/plate
  Average number of revertant colonies (mean ± SD): 0
  bacterial background lawn: c
[1]; TA98, -S9, 1.58 mg/plate
  Average number of revertant colonies (mean ± SD): 0
  bacterial background lawn: d
[1]; TA98, -S9, 5 mg/plate
  Average number of revertant colonies (mean ± SD): 0
  bacterial background lawn: d

Source: paper PMC8002023, “3D Pharmacophore-Based Discovery of Novel KV10.1 Inhibitors with Antiproliferative Activity” (Cancers, 2021)
